From the CombiSolv-Exp solvation set (Vermeire and Green 2021)

Experiment: solvent given as SMILES

CC(C(=O)O)c1ccc(-c2ccccc2)c(F)c1 (stereo not given)
Conditions | solvation free energy, 298 K [kcal/mol]
in C1COCCO1 | -16.2
in CC(C)=O | -16.1
in CCCCCCCO | -15.6
in CCCCCCO | -15.6
in CCCCCO | -15.7
in CCCCO | -15.7
in CCCO | -15.8
in CCO | -15.9
in CCOC(C)=O | -15.9
in CO | -15.9
in O | -8.42

BrCCBr
Conditions | solvation free energy, 298 K [kcal/mol]
in C1COCCO1 | -5.84
in ClC(Cl)(Cl)Cl | -5.33
in O | -2.2

COCCO
Conditions | solvation free energy, 298 K [kcal/mol]
in C1CCOC1 | -5.45
in COC(C)=O | -5.46
in O | -6.77

O=C(O)c1ccc([N+](=O)[O-])cc1
Conditions | solvation free energy, 298 K [kcal/mol]
in C1CCOC1 | -13.3
in C1COCCO1 | -13.1
in CC(C)(C)O | -12.4
in CC(C)CCO | -11.9
in CC(C)CO | -11.9
in CC(C)O | -12.2
in CC(C)OC(C)C | -11.3
in CC(C)OCCO | -12.6
in CC(O)COC(C)(C)C | -12.6
in CCC(C)O | -12.1
in CCCC(C)O | -12
in CCCCCCCCCCO | -11.7
in CCCCCCCCO | -11.8
in CCCCCCCO | -11.9
in CCCCCCO | -12
in CCCCCO | -12
in CCCCCOC(C)=O | -11.7
in CCCCO | -12
in CCCCOC(C)=O | -11.9
in CCCCOCCO | -12.5
in CCCO | -12.2
in CCCOCCO | -12.6
in CCO | -12.3
in CCOC(C)=O | -12.2
in CCOCC | -12.2
in CCOCCO | -12.8
in CN(C)C=O | -12.8
in CO | -12.5
in COC(C)=O | -12.4
in COC(C)CCO | -12.6
in O | -9.44

CCCCCCCC(=O)c1c(C)[nH]n(-c2ccccc2)c1=O
Conditions | solvation free energy, 298 K [kcal/mol]
in O | -8.85

CCCCI
Conditions | solvation free energy, 298 K [kcal/mol]
in ClC(Cl)(Cl)Cl | -5.57
in O | -0.25

c1ccc2c(c1)Oc1ccccc1O2
Conditions | solvation free energy, 298 K [kcal/mol]
in O | -3.15

Clc1ccc(Cl)c(-c2cc(Cl)ccc2Cl)c1
Conditions | solvation free energy, 298 K [kcal/mol]
in CCCCCCCCO | -11.2
in O | -2.55

Cc1cc(C)cc(O)c1
Conditions | solvation free energy, 298 K [kcal/mol]
in CC(C)CC(C)(C)C | -6.48
in CCCCCC | -6.77
in CCCCCCC | -6.71
in CCCCCCCC | -6.69
in O | -6.28

CC(C)CCCCCCCOC(=O)c1ccccc1C(=O)OCCCCCCCC(C)C
Conditions | solvation free energy, 298 K [kcal/mol]
in O | -5.93

CC(C)CC(C)(C)C
Conditions | solvation free energy, 298 K [kcal/mol]
in C1CCOC1 | -4.65
in CC1CCS(=O)(=O)C1 | -2.59
in CC#N | -3.11
in CC(C)(C)O | -3.6
in CC(C)O | -3.68
in CC(C)OC(C)C | -4.57
in CCC(C)=O | -4.05
in CCCCCCCC | -4.53
in CCCCCCCCCCCCCCCC | -4.26
in CCCCCCCCCCO | -3.9
in CCCCCCO | -4.07
in CCCCCO | -3.89
in CCCCCl | -4.57
in CCCO | -3.67
in CCO | -3.84
in CN1CCCC1=O | -3.12
in CN(C)C=O | -3.18
in COC(C)(C)C | -4.65
in N#CCCOCCC#N | -1.86
in O | 2.92
in O=CN1CCOCC1 | -2.44
in OCCO | -1.05
in OCCOCCO | -1.78
in OCCOCCOCCO | -1.88
in OCCS | -2.36
